Laboratory results taken from patent US6548543B1, “Remedies or preventives containing cyclopentenone compounds as the active ingredient” (Takara Shuzo Co., Ltd., priority 1998, dated 2003).

Legend:
HSP70 = details: cited from earlier work
[1] = Single oral dose toxicity; type: in vivo; details: mouse, oral, single dosage of 100 mg/kg
Experimental: No toxicity is observed when a physiologically effective amount of the cyclopentenone derivative or an optical isomer thereof, or a salt thereof obtained according to the present invention is administered.

[2] = system: λ-carrageenan pedal edema; experiment: Carrageenan induced pedal edema; type: in vivo, Lewis rats; details: rat, 3 hours after carrageenan
Experimental: Lewis rats (male, 9 weeks old, weighing about 250 g) were purchased from Seac Yoshitomi.
Rats were fasted from 18 hours before the start of the experiments. Dipropionylcyclopentenone, dihexanoylcyclopentenone, di-2-hexenoylcyclopentenone, diisobutyrylcyclopentenone or dibenzoylcyclopentenone dissolved in olive oil (Nacalai Tesque) was orally administered to 4 rats per group at 1 or 10 mg/10 ml/kg.
100 μl of 1% λ-carrageenan (Wako Pure Chemical Industries) suspension in saline (Otsuka Pharmaceutical) was injected into the sole of right paw of a rat 0.5 hour after the administration of test substance to induce pedal edema. The volume of the right foot of the rat was measured using an instrument for measuring pedal volume (Ugo Basile) 3 hours after the injection with carrageenan. The measurements were expressed as the rate of increase calculated based on the volume of the right foot of each rat measured before the administration with carrageenan.
FIG. 5 illustrate the relationship between the amount of cyclopentenone derivative administered and the rate of increase in edema in foot. The horizontal axis represents the dose […] and the vertical axis represents the rate of increase (%).

topoisomerase I = biological target: T1, topoisomerase I (Homo sapiens, UniProt P11387); experiment: Topoisomerase I inhibition, pBR322 DNA relaxation; type: biochemical; details: 37° C., 30 minutes
T1 construct: purchased TopoGEN
T1 sequence (P11387 1-765): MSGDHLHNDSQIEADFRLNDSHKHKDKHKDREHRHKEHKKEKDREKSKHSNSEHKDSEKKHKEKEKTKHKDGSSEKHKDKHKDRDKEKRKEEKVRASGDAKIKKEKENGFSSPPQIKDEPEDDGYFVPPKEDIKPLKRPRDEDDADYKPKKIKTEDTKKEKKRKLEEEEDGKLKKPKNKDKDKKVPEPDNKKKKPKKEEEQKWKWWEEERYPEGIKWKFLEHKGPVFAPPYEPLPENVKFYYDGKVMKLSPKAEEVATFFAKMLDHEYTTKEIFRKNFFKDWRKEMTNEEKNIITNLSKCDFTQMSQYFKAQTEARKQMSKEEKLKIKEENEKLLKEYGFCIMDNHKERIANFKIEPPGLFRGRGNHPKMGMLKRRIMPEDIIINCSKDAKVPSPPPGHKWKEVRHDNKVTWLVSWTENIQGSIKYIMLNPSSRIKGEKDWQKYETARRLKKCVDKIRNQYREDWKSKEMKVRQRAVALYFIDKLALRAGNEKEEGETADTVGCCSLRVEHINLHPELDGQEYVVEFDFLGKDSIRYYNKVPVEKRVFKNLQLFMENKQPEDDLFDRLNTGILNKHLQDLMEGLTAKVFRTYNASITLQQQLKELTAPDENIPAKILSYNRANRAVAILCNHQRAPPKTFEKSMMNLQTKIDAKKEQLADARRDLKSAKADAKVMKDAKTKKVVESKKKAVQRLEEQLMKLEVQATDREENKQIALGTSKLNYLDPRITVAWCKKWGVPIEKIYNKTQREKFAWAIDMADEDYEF
Experimental: (1) 2 μl of topoisomerase II (TopoGEN; 2 units/μl), 2 μl of 10-fold concentrated buffer [0.5 M Tris-HCl (pH 8.0), 1.2 M KCl, 0.1 M MgCl2, 2.5 mM adenosine triphosphate, 5 mM dithiothreitol], 2 μl of 0.1% bovine serum albumin (Takara Shuzo), 11 μl of distilled water and 2 μl of distilled water (control) or 2 μl of one of aqueous solutions of dipropionylcyclopentenone, diisobutyrylcyclopentenone, dibenzoylcyclopentenone, dihexanoylcyclopentenone, di-2-hexenoylcyclopentenone, dimethoxyacetylcyclopentenone, dimethylfumarylcyclopentenone or dimethylmaleylcyclopentenone at varying concentrations were mixed together. 1 μl of 0.25 μg/μl pBR322 DNA (Takara Shuzo) was added thereto. The resulting mixture was reacted at 37° C. After reacting for 30 minutes, 2 μl of an aqueous solution containing 1% sodium dodecyl sulfate, 50% glycerol and 0.02% Bromophenol Blue was added thereto to stop the reaction. […]
(2) The activity of inhibiting topoisomerase I of each of the cyclopentenone derivatives was determined as described in Example 3-(1) except that topoisomerase I (TopoGEN; 0.01 unit/μl) was used in place of topoisomerase II and a solution containing 100 mM Tris-HCl (pH 7.9), 10 mM EDTA, 1 mM spermidine and 50% glycerol was used as 10-fold concentrated buffer.

Row | Compound | Concentration required for inducing HSP70 (HSP70) | Death after single oral administration [1] | Suppression of edema in foot (FIG. 5) ([2]; 1 mg/kg oral) | Suppression of edema in foot (FIG. 5) ([2]; 10 mg/kg oral) | Concentration at which change of DNA from superhelical type to relaxed type was partially or completely inhibited (topoisomerase I) [µM]
1 | O=C1C=CCC1 [2-cyclopenten-1-one] | several hundred | – | – | – | –
2 | O=C(OC1C=CC(=O)C1OC(=O)c1ccccc1)c1ccccc1 (centres unmarked) | – | no death was observed | Tendency of suppression | significant suppression | ≥ 50
